Source: US6342503B1, “1N-alkyl-n-arylpyrimidinamines and derivatives thereof” (DuPont Pharmaceuticals Company, priority 1993, dated 2002)
Like-named read-outs stand apart in the source and are kept apart here.

Target: T1, CRF receptor (Rattus norvegicus, UniProt P35353)
T1 construct: 100 μl of membrane suspension as prepared above to give a total reaction volume of 300 μl; from tissue; host or cells: rat cerebral cortex membrane homogenate
T1 sequence (P35353 24-415): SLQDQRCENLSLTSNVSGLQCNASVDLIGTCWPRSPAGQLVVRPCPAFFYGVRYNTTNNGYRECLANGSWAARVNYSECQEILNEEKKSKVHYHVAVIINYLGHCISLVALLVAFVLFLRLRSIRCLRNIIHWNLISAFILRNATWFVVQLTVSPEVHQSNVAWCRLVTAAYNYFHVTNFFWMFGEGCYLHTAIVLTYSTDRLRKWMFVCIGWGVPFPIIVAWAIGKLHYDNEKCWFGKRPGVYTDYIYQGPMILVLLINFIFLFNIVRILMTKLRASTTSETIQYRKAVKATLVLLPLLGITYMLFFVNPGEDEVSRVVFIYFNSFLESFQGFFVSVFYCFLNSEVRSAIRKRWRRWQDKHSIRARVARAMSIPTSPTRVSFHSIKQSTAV
Assay: In vitro CRF receptor binding assay (competition with [125I] ovine CRF, rat cortex membranes)
Conditions: read-out: Inhibition Ki
Description: In vitro Receptor Binding Assay
Tissue Preparation: Male Sprague Dawley rats (180-200 g) were sacrificed by decapitation and the cortex was dissected on ice, frozen whole in liquid nitrogen and stored at −70° C. until use. On the day of assay, frozen tissue was weighed and homogenized in 20 volumes of ice cold buffer containing 50 mM Tris, 10 mM MgCl2, 2 mM EGTA, pH 7.0 at 22° C. using a Polytron (Brinkmann Instruments, Westbury, N.Y.; setting 6) for 20 s. The homogenate was centrifuged at 48,000× g for 10 min at 4° C. The supernatant was discarded, and the pellet was re-homogenized in the same volume of buffer and centrifuged at 48,000× g for 10 min at 4° C. The resulting pellet was resuspended in the above buffer to a final concentration of 20-40 mg original wet weight/mL and used in the assays described below.
CRF Receptor Binding: Receptor binding assays were carried out essentially as described by E. B. De Souza, J. Neurosci. […]
All assays were carried out at equilibrium for 2 h at 22° C. as described by E. B. De Souza, J. Neurosci. […] The reaction was terminated by centrifugation of the tubes in a Beckman microfuge for 5 min at 12,000× g. Aliquots of the supernatant were collected to determine the “free” radioligand concentration. The remaining supernatant was aspirated and the pellets washed gently with ice-cold PBS plus 0.01% Triton X-100; centrifuged again and monitored for bound radioactivity as described above. […] This program has the distinct advantage of fitting the raw experimental data on an untransformed coordinate system where errors are most likely to be normally distributed and uncorrelated with the independent variable. […] The parameters for the affinity constants (KD) and receptor densities (Bmax) are also provided along with statistics on the general “fit” of the estimated parameters to the raw data.
Competition Curve Analysis
The resulting pellets were surface washed twice by centrifugation with 1 mL of ice-cold phosphate buffered saline and 0.01% Triton X-100; the supernatants discarded and the pellets monitored for radioactivity at approximately 80% efficiency. The level of non-specific binding was defined in the presence of […] unlabeled rat/humanCRF (r/hCRF). Data from competition curves were analyzed by the program LIGAND. […] Routinely, the data were analyzed using a one- and two-site model comparing the “goodness of fit” between the models in order to accurately determine the Ki. Statistical analyses provided by LIGAND allowed the determination of whether a single-site or multiple-site model should be used.
In Table 17; the Ki values were determined using the assay conditions described above.

[1] = competition with [125I] ovine CRF, 2 h at 22° C., Ki classes

Ki [µM]	Ki [1] [µM]	Structure (SMILES)
0.501 to 2	–	CCN(c1nc(C)cc(COc2ccccn2)n1)c1ccc(C(C)C)cc1Br [compound 210]
2 to 10	–	Cc1cc(C)nc(N(C)c2ccccc2C(F)(F)F)n1 [compound 54]
< 0.5	–	Cc1cc(C)c2ccn(-c3ccc(C(C)C)cc3Br)c2n1 [Example 257]
2 to 10	–	Cc1cc(C)nc(N(C)c2ccc(I)cc2)n1 [compound 52]
0.501 to 2	–	CCN(c1nc(C)cc(COc2cc(OC)c(OC)c(OC)c2)n1)c1ccc(C(C)C)cc1Br [compound 214]
< 0.5	–	CCN(c1nc(C)cc(COc2ncccn2)n1)c1ccc(C(C)C)cc1Br [compound 213]
< 0.5	–	Cc1cc(C)nc(N(CC#N)c2ccc(C(C)C)cc2Br)n1 [compound 32]
< 0.5	–	CCN(c1nc(C)cc(N2CCSC2)n1)c1ccc(C(C)C)cc1I [compound 171, N-(2-iodo-4-(1-methylethyl)phenyl)-N-ethyl-4-thiazolidino-6-methyl-2-pyrimidinamine]
< 0.5	–	Cc1cc(C)nc(N(C)c2ccc(C(C)(C)C)cc2Br)n1 [compound 11]
2 to 10	–	Cc1cc(C)nc(N(C)c2ccc(C(C)C)cc2)n1 [compound 66]
< 0.5	–	CCN(c1nc(C)cc(OCCC[S+](C)[O-])n1)c1ccc(C(C)C)cc1Br (stereo not shown) [compound 162]
< 0.5	–	CCN(c1nc(C)cc(COC)n1)c1ccc(C(C)C)cc1I [compound 207]
–	< 0.5	CCN(c1nc(C)cc(C)n1)c1ccc(C(C)=NOC)cc1SC [compound 178, N-(2-methylthio-4-methoxyiminoethylphenyl)-N-ethyl-4,6-dimethyl-2-pyrimidinamine]
0.501 to 2	–	C=CCN(c1nc(C)cc(C)n1)c1ccccc1Br [compound 3]
< 0.5	–	Cc1cc(-c2ccccc2)c2ccn(-c3ccc(C(C)C)cc3Br)c2n1 [Example 261]
2 to 10	–	CCN(c1nc(C)cc(COCCN2CCOCC2)n1)c1ccc(C(C)C)cc1Br [compound 231]
2 to 10	–	CCN(c1nccc(C)n1)c1ccc(C(C)C)cc1Br [compound 49, N-(2-Bromo-4-(1-methylethyl)phenyl)-N-ethyl-4-methyl-2-pymidinamine]
< 0.5	–	CCN(c1nc(C)cc(COCc2ccco2)n1)c1ccc(C(C)C)cc1Br [compound 221]
0.501 to 2	–	CCN(c1nc(C)cc(C)n1)c1ccc(C2CCCCC2)cc1Br [compound 22]
< 0.5	–	CCN(c1nc(C)nc(N2CCSCC2)n1)c1ccc(C(C)C)cc1I [compound 135]
< 0.5	–	C=CCN(c1nc(C)cc(N2CCOCC2)n1)c1ccc(C(C)C)cc1Br [compound 17]
< 0.5	–	CCN(c1nc(C)cc(C)n1)c1ccc(OC)cc1Br [compound 206]
< 0.5	–	CCN(c1nc(C)cc(Cl)n1)c1ccc(C(C)C)cc1Br [compound 154]
< 0.5	–	CCCCc1ccc(N(CC)c2nc(C)cc(C)n2)c(Br)c1 [compound 19]
2 to 10	–	CCN(c1nc(C)cc(C(=O)N2CCN(c3ccccn3)CC2)n1)c1ccc(C(C)C)cc1Br [compound 274]
–	< 0.5	CCSc1cc(C(C)=NOC)ccc1N(CC)c1nc(C)cc(C)n1 [compound 176, N-(2-ethylthio-4-methoxyiminoethylphenyl)-N-ethyl-4,6-dimethyl-2-pyrimidinamine]
< 0.5	–	CCN(c1nc(C)cc(COc2ccc(-n3ccnc3)cc2)n1)c1ccc(C(C)C)cc1Br [compound 218]
< 0.5	–	Cc1cc(Cl)nc2c1ccn2-c1ccc(C(C)C)cc1Br [Example 263]

Ki [µM]	Ki [1] [µM]	Structure (SMILES)
0.501 to 2	–	CCN(c1nc(C)cc(COc2cccc(N(C)C)c2)n1)c1ccc(C(C)C)cc1Br [compound 215]
< 0.5	–	CCN(CC)c1nc(C)nc(N(CC)c2ccc(C(C)C)cc2Br)n1 [compound 232]
2 to 10	–	CCN(c1nc(C)cc(NN)n1)c1ccc(C(C)C)cc1Br [compound 146]
< 0.5	–	Cc1cc(Cl)c2ccn(-c3ccc(C(C)C)cc3Br)c2n1 [Example 259]
< 0.5	–	CCOC(=O)C(C(=O)OCC)c1nc(C)nc(N(CC)c2ccc(C(C)C)cc2Br)n1 [compound 246]
< 0.5	–	CCN(c1nc(C)cc(C(O)c2ccc(OC)cc2)n1)c1ccc(C(C)C)cc1Br (stereo not shown) [compound 292]
< 0.5	–	CCN(c1nc(C)cc(CN(C)C)n1)c1ccc(C(C)C)cc1Br [compound 279]
< 0.5	–	CCN(c1nc(C)cc(N(C)CCO)n1)c1ccc(C(C)C)cc1Br [compound 50, N-(2-Bromo-4-(1-methylethyl)phenyl)-N-ethyl-4-methyl-6-(N-methyl-2-hydroxyethlamino)-2-pyrimidinamine]
< 0.5	–	CCN(c1nc(C)cc(N2CCSCC2)n1)c1ccc(C(C)C)cc1I [compound 73, N-ethyl-N-(2-iodo4-(1-methylethyl)phenyl)4-thiomorpholino-6-methyl-2-pyrimidinamine]
< 0.5	–	CCN(c1nc(C)cc(C(C)(C)O)n1)c1ccc(C(C)C)cc1Br [compound 295]
< 0.5	–	CCN(c1nc(C)cc(COCc2ccncc2)n1)c1ccc(C(C)C)cc1Br [compound 219]
0.501 to 2	–	Cc1cc(C)nc(N2CCCSc3cc(C(C)C)ccc32)n1 [compound 173]
< 0.5	–	CCN(c1nc(C)cc(OCCCS(C)(=O)=O)n1)c1ccc(C(C)C)cc1Br [compound 156]
< 0.5	–	CCN(c1nc(C)cc(CN(C)Cc2ccco2)n1)c1ccc(C(C)C)cc1Br [compound 276]
< 0.5	–	CCN(c1nc(C)cc(-c2cccs2)n1)c1ccc(C(C)C)cc1Br [compound 31, N-(2-Bromo-4-(1-methylethyl)phenyl)-N-ethyl-6-methyl-4-(2-thienyl)-2-pyrimidinamine]
0.501 to 2	–	CCN(c1nc(C)cc(C)n1)c1c(OC)cc(C)cc1OC [compound 51]
< 0.5	–	CCN(c1nc(C)cc(OCc2ccccc2)n1)c1ccc(C(C)C)cc1Br [compound 149]
0.501 to 2	–	CCN(c1cc(OC)nc(OC)n1)c1ccc(C(C)C)cc1Br [compound 130]
< 0.5	–	CCN(c1nc(C)nc(N(C)C)n1)c1c(Br)cc(OC)cc1OC [compound 238]
< 0.5	–	CCN(c1nc(C)cc(COCCOC)n1)c1ccc(C(C)C)cc1Br [compound 227]
–	< 0.5	CCN(c1nc(C)cc(N2CCOCC2)n1)c1ccc(C(C)C)cc1Br [compound 16, N-(2-bromo-4-(1-methylethyl)phenyl)-N-ethyl-4-morpholino-6-methyl-2-pymidinamine]
0.501 to 2	–	CCN(c1nc(C)nc(C)n1)c1ccc(C(C)C)cc1Br [compound 133]
< 0.5	–	CCN(c1nc(C)nc(N2CCCCC2)n1)c1ccc(C(C)C)cc1I [compound 137]
2 to 10	–	CCN(c1nc(C)cc(C(=O)c2c[nH]c3ccccc23)n1)c1ccc(C(C)C)cc1Br [compound 283]
< 0.5	–	CCN(c1nc(C)cc(SC)n1)c1ccc(C(C)C)cc1Br [compound 140, N-(2-bromo-4-(1-methylethyl)phenyl)-N-ethyl-4-methyl-6-(thiomethyl)-2-pyrimidinamine]
0.501 to 2	–	CCN(c1nc(C)cc(C=O)n1)c1ccc(C(C)C)cc1Br [compound 222, N-(2-Bromo-4-(1-methylethyl)phenyl)-N-ethyl-4-formyl-6-methyl-2-pyrimidinamine]
0.501 to 2	–	CCN(c1nc(C)nc(Cl)n1)c1ccc(C(C)C)cc1Br [compound 250]
